Results on 3 substances are retold here after patent publication US10808008B2, “Aromatic-cationic peptides and uses of same” (Cornell University, priority 2012, dated 2020).

Holding throughout (format): biochemical
The target of assay [1] is cardiolipin-cytochrome c complex (Equus caballus, UniProt P00004). Put plainly: Cytochrome c reduction in the presence of cardiolipin. The settings on record: for rate of cytochrome c reduction in the presence of cardiolipin: 40 μM peptide, 100 μg/ml cardiolipin, 50 μM ascorbate, 10% with cardiolipin alone. How it is done: Reduction of cytochrome c (20 μM) was induced by the addition of glutathione (500 μM) in the absence or presence of CL (100 μg/ml) (FIG. 15A). Reduction of cytochrome c was monitored by absorbance at 550 nm using a 96-well UV-VIS plate reader (Molecular Devices). Addition of CL decreased the rate of cytochrome c reduction by half.
cardiolipin-cytochrome c complex, sequence (P00004 2-105 limits assumed, one chain of several): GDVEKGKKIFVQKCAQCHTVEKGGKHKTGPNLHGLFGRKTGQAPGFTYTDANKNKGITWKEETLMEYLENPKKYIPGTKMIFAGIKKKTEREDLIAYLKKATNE
The time course of cytochrome c reduction by ascorbate was recorded at 550 nm and 570 nm using a 96-well plate reader (Molecular Devices, Sunnyvale, Calif.). For all reactions, cytochrome c was preincubated with cardiolipin in the presence or absence of SS peptides for 1 min. […] Ascorbate (50 μM) was added to initiate the reduction of cytochrome c, and the absorbance was recorded for 5 min. The rate of reduction was calculated based on slope of the change in absorbance intensity of 550 nm over 570 nm.

Assay [2] concerns the target cytochrome c and cardiolipin (Equus caballus, UniProt P00004). The assay is described as follows: Oxidation of ferrous cytochrome c by cardiolipin (A550). The conditions noted are these: 20 μM cytochrome c reduced by 50 μM ascorbic acid; 100 μg/ml cardiolipin. How it is done: Cytochrome c (20 μM) was reduced by 50 μM ascorbic acid until all available functionally active cytochrome c was reduced. The reduction of cytochrome c was monitored by the appearance of a peak at 550 nm in its absorbance spectrum (Molecular Devices, Sunnyvale, Calif.). […] The rate of oxidation was calculated based on slope of the change in absorbance intensity of 550 nm over 570 nm.

In the next assay the target is cytochrome c/CL complex (Equus caballus, UniProt P00004). The assay is described as follows: Peroxidase activity of cytochrome c/cardiolipin complex (Amplex Red). The settings on record: 2 μM cytochrome c; for peroxidation rate of cytochrome c: 10 μM peptide, cardiolipin 100 μg/ml. The source says: The six coordination of the heme in cytochrome c prevents direct interaction of H2O2 with the catalytic metal site, and native cytochrome c in solution is a poor peroxidase. Upon interaction with CL, cytochrome c undergoes a structural change with rupture of the Fe-Met80 coordination. […] The mechanism of action of cytochrome c peroxidase is similar to that of other peroxidases, such as horse radish peroxidase (HRP). Thus it is possible to use the amplex red-HRP reaction to investigate cytochrome c peroxidase activity. In the presence of peroxidase, amplex red (AR) reacts with H2O2 to form the red-fluorescent oxidation product, resorufin (Ex/Em=571/585).
cytochrome c/CL complex, sequence (P00004 2-105 limits assumed, one chain of several): as above
Cytochrome c (2 μM) was mixed with CL (25 μg/ml) and 10 μM H2O2 in 20 mM HEPES, pH 7.4. Amplex red (50 μM) was then added and fluorescence emission monitored in real time using Hitachi F4500 fluorescence spectrophotometer. Addition of amplex red elicited rapid increase in fluorescence signal due to resorufin formation, providing direct evidence for peroxidase activity of cytochrome c/CL complex (FIG. 19A).
Assessment of cytochrome c peroxidase activity was achieved using the Amplex® Red assay (Invitrogen/Life Technologies, Carlsbad, Calif.). Amplex® Red is a reagent that reacts with H2O2 in a 1:1 stoichiometry to produce highly fluorescent resorufin (λex/λem=570/585) in the presence of a peroxidase. In this assay, cytochrome c is added in place of horseradish peroxidase. 2 μM cytochrome c was incubated with cardiolipin or cardiolipin-POPC liposomes (10 μg/ml) for 1 min in 20 mM HEPES (pH 7.4) or deionized water prior to the addition of 50 μM Amplex® Red reagent and 10 μM H2O2, and the reaction was allowed to proceed for an additional 5 minutes. The continuous time course data were obtained using Hitachi F-4500 fluorescence spectrophotometer. When comparing the different SS peptide analogs (10 μM) in inhibiting peroxidase activity cytochrome c (2 μM) in the presence of cardiolipin (100 μg/ml), a microplate spectrofluorometer (Molecular Devices, Sunnyvale, Calif.) was used. Horseradish peroxidase (HRP) was used for comparison, and the HRP concentration (0.001 U/ml) was optimized to match the rate of Amplex® Red peroxidation by cardiolipin-cytochrome c complex.

In assay [3] the target is cytochrome c/cardiolipin complex (Equus caballus, UniProt P00004). The assay is described as follows: Soret circular dichroism of cytochrome c with cardiolipin. The conditions noted are these: 10 μM cytochrome c; for protection against CL-induced disappearance of negative Cotton effect: 30 μg/ml CL, 10 μM peptide, 20 mM HEPES pH 7.5, 25° C.; for loss of the negative Cotton peak at 419 nm caused by cardiolipin: 30 μg/ml cardiolipin, peptide 1:1 with cytochrome c, pH 7.4. As to the method:
Circular dichroism (CD) was carried out to examine the effects of the peptides on protecting the heme environment of cytochrome c from the acyl chain of CL. For heme proteins, the Soret CD spectrum is strictly correlated with the heme pocket conformation. In particular, the negative 416-420 nm Cotton effect is considered diagnostic of Fe(III)-Met80 coordination in native cytochrome c (Santucci and Ascoli, 1997). […] CD spectra were obtained using AVIV CD Spectrometer Model 410.
Changes in the Soret CD spectrum of cytochrome c (10 μM) were recorded in the absence (dotted line) and presence (dashed line) of 30 μg/ml CL, plus addition of different peptides (10 μM) (solid line) (FIG. 14). CD measurements were carried out using 20 mM HEPES, pH 7.5, at 25° C. and expressed as molar ellipticity (A) (m Deg). […] Accordingly, aromatic-cationic peptides of the present disclosure are useful for the prevention or treatment of diseases or disorders characterized by dysregulation of cardiolipin and/or cytochrome c, and/or diseases or disorders characterized by dysregulation of the cardiolipin/cytochrome c interaction. In addition, aromatic-cationic peptides of the present disclosure are useful to protect the heme environment of cytochrome c from the acyl chain of cardiolipin.
Circular Dichroism (CD) spectra were collected with an AVIA 62 DS spectrophotometer equipped with a sample temperature controller. CD spectra of the Soret region (370-450 nm) were recorded with 10-mm path length cells containing 20 mM Hepes, pH 7.4, and 10 μM cytochrome c, in the presence or absence of 30 μg/ml cardiolipin and different SS peptide analogs (SS-02, [atn]SS-02, [ald]SS-02, and SS-31). The maximum lipid concentration was kept low to avoid spectral distortions due to excessive light scattering. All measurements were done at 25° C. All spectra were corrected for background, and the final spectrum shown represents the average of at least three experiments.
Background: CD spectra are sensitive to the conformation of chiral molecules.

“Also recorded” adds a separate entry of the source.

cytochrome c/cardiolipin complex, sequence (P00004 2-105 limits assumed, one chain of several): as above
cytochrome c and cardiolipin, sequence (P00004 2-105 limits assumed): as the sequence (P00004 2-105 limits assumed, one chain of several) above

2′,6′-Dmt-D-Arg-Ald-Lys-NH2 [SS-36]: the “rate of cytochrome c reduction in the presence of cardiolipin” value (shortened to “rate of cytochrome c reduction”) in assay [1] (20 μM cytochrome c) is reported as “about 90%”. In assay [2], the “oxidation of cytochrome c by cardiolipin (loss of the 550 nm peak)” value (from here on “oxidation … (loss of the 550 nm peak)”) was “inhibition of cytochrome c oxidation”. For the same substance, at cytochrome c/CL complex, the “peroxidation rate of cytochrome c” value is recorded as “about 20 % of control”. In assay [3], the “protection against CL-induced disappearance of negative Cotton effect” value (“protection” below) is listed as “Protect the Heme Environment of Cytochrome c from the Acyl Chain of CL” and the “loss of the negative Cotton peak at 419 nm caused by cardiolipin” value (“loss of the negative Cotton peak” below) is reported as “prevented”.

Take “2′,6′-Dmt-D-Arg-Phe-(atn)Dap-NH2 [SS-19]”: the “rate of cytochrome c reduction” value in assay [1] (20 μM cytochrome c) was “about 50%”. Also, the “oxidation … (loss of the 550 nm peak)” value in assay [2] is recorded as “inhibition of cytochrome c oxidation”. Moreover, the “peroxidation rate of cytochrome c” value on cytochrome c/CL complex is recorded as ~75 % of control. In assay [3], the “protection” value is “Protect the Heme Environment of Cytochrome c from the Acyl Chain of CL” and the “loss of the negative Cotton peak” value is listed as “prevented”.

With D-Arg-2′,6′-Dmt-Lys-Phe-NH2 [SS-31], the “inhibitory action of CL on cytochrome c reduction” value in assay [1] (20 μM cytochrome c, 500 μM glutathione, CL 100 μg/ml, SS-31 20, 40 or 100 μM) is given as “dose-dependently prevented the inhibitory action of CL”. Further, in assay [1] (20 μM cytochrome c), the “rate of cytochrome c reduction” value came to 100%. Further, the “inhibitory effect of CL on kinetics of cytochrome c reduction” value in assay [1] (500 μM GSH or 50 μM ascorbate) is reported as “dose-dependently overcame the inhibitory effect of CL”. The “oxidation … (loss of the 550 nm peak)” value in assay [2] was “prevented by the addition of SS-31 in a concentration-dependent manner”. The “rate of amplex red peroxidation / kinetics of cytochrome c peroxidase activity” value at cytochrome c/CL complex (CL 25 μg/ml, 10 μM H2O2, 50 μM amplex red) is “decreased the rate of amplex red peroxidation; also recorded: dose-dependently reduced the kinetics of cytochrome c peroxidase activity”. Moreover, on cytochrome c/CL complex, the “peroxidation rate of cytochrome c” value is given as ~35 % of control. Moreover, in assay [3], the “protection” value is given as “Protect the Heme Environment of Cytochrome c from the Acyl Chain of CL” and the “loss of the negative Cotton peak” value is “prevented”.
